pEC50, pIC50: −log10 of the molar value.
Experiments:
[1] = test system: THP1-Dual™ cells (IRF-Lucia luciferase reporter); assay: THP1-Dual™ cell reporter assay; format: cell-based, human
Summary of the method: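 THP1-Dual cells (~100,000 per well) exposed to compound or ADC in supplemented RPMI-1640 with 10% FBS; supernatant taken at 24 h for compounds or 48 h for ADCs. Secreted IRF-driven Lucia luciferase measured by luminescence with QUANTI-Luc reagent.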

[2] = test system: 786-O; assay: Cancer cell direct cytotoxicity assay, 786-O; format: cell-based, human; conditions: 96 hours, concentration required to reduce cell viability to 50%, read-out: Compound X50
Procedure: (§1) Cancer cells were counted and plated in 40 μL complete growth media in 384-well, white-walled tissue culture treated plates (Corning). Cell plates were incubated at 37° C. and with 5% CO2 overnight to allow the cells to equilibrate. Stock solutions containing ADCs or free drugs were serially diluted in RPMI-1640+20% fetal bovine serum (FBS). 10 μL of each concentration were then added to each cell plate in duplicate. Cells were then incubated at 37° C. and with 5% CO2 for 96 hours, upon which, the cell plates were removed from the incubator and allowed to cool to room temperature for 30 minutes prior to analysis. CellTiter-Glo® luminescent assay reagent (Promega Corporation, Madison, WI) was prepared according to Promega's protocol. 10 μL of CellTiter-Glo® were added to assay plates using a Formulatrix Tempest liquid handler (Formulatrix) and the plates were protected from light for 30 minutes at room temperature. The luminescence of the samples was measured using an EnVision Multimode plate reader (Perkin Elmer, Waltham, MA). Raw data were analyzed in Graphpad Prism (San Diego, CA) using a nonlinear, 4-parameter curve fit model [Y=Bottom+(Top-Bottom)/(1+10^((Log EC50−X)*HillSlope))]. Results are reported as X50 values, which are defined as the concentration of ADC or free drug required to reduce cell viability to 50%.

[3] = test system: A2058; assay: Cancer cell direct cytotoxicity assay, A2058; format: cell-based, human; conditions: 96 hours, read-out: Compound X50
Procedure: as §1

[4] = test system: BxPC3; assay: Cancer cell direct cytotoxicity assay, BxPC3; format: cell-based, human; conditions: 96 hours, read-out: Compound X50
Procedure: as §1

[5] = test system: DEL; assay: Cancer cell direct cytotoxicity assay, DEL; format: cell-based, human; conditions: 96 hours, read-out: Compound X50
Procedure: as §1

[6] = test system: DELBVR; assay: Cancer cell direct cytotoxicity assay, DELBVR; format: cell-based, human; conditions: 96 hours, read-out: Compound X50
Procedure: as §1

[7] = test system: Karpas299; assay: Cancer cell direct cytotoxicity assay, Karpas299; format: cell-based, human; conditions: 96 hours, read-out: Compound X50
Procedure: as §1

[8] = test system: L540cy; assay: Cancer cell direct cytotoxicity assay, L540cy; format: cell-based, human; conditions: 96 hours, read-out: Compound X50
Procedure: as §1

[9] = test system: Ls174T; assay: Cancer cell direct cytotoxicity assay, Ls174T; format: cell-based, human; conditions: 96 hours, read-out: Compound X50
Procedure: as §1

[10] = test system: MDAMB231; assay: Cancer cell direct cytotoxicity assay, MDAMB231; format: cell-based, human; conditions: 96 hours, read-out: Compound X50
Procedure: as §1

[11] = test system: MOLM-13; assay: Cancer cell direct cytotoxicity assay, MOLM-13; format: cell-based, human; conditions: 96 hours, read-out: Compound X50
Procedure: as §1

[12] = test system: SU-DHL-4; assay: Cancer cell direct cytotoxicity assay, SU-DHL-4; format: cell-based, human; conditions: 96 hours, read-out: Compound X50
Procedure: as §1

[13] = test system: wild type (WT) murine bone marrow-derived macrophages; assay: Bone marrow-derived macrophage assay, wild type; format: cell-based, mouse; conditions: 24 hours
Procedure: Potency of the compounds described herein was evaluated using mouse bone-marrow derived macrophages cultured from wild type (C57BL/6J, the Jackson Laboratory #000664) or STING-deficient (C57BL/6J-Sting1^gt/J, the Jackson Laboratory #017537) mice. Briefly, mouse bone marrow cells were cultured for 7-10 days in RPMI-1640 (Gibco) with 10% heat-inactivated fetal bovine serum, Pen-Strep (100 U/mL-100 […], Gibco), HEPES (10 mM, Gibco), sodium pyruvate (1 mM, Gibco), GlutaMAX (1×, Gibco), beta-mercaptoethanol ([…], Gibco) and 20-40 ng/mL murine M-CSF (Peprotech, #315-02). Cells were plated in a 96-well flat bottom tissue culture-treated clear polystyrene plate (Corning Costar #3596) at ˜100,000 cells per well in 200 μL with the indicated concentration of the compound. The supernatant was harvested at 24 hours and cytokines were measured using a Milliplex MAP mouse cytokine/chemokine magnetic bead panel assay kit (MCYTOMAG-70k custom 11-plex kit: MCP1, MIP1α, MIP1β, TNFα, IFNγ, IL-10, IL-12p70, IL-1β, IL-6, IP10, RANTES) and analyzed using a Luminex™ MAGPIX™ Instrument System.

[14] = test system: Renca tumor-bearing mice; assay: In vivo cytokine assay, Renca tumor-bearing mice; set-up: species or system mouse; RANTES in plasma / TNFa in plasma: unit not given here; conditions: for IFNγ in plasma / IL1β in plasma / IL12p70 in plasma / IL-6 in plasma / IL-10 in plasma / IP10 in plasma / MCP-1 in plasma / MIP1α in plasma / MIP1β in plasma / RANTES in plasma / TNFa in plasma: 1.48 mg/kg
Procedure: Cytokines were measured in mouse plasma harvested at 3, 6, 24, or 48 hours after treatment with compounds or ADCs using a Milliplex MAP mouse cytokine/chemokine magnetic bead panel assay kit (MCYTOMAG-70k custom 11-plex kit: MCP1, MIP1a, MIP1(3, TNFα, IFNγ, IL-10, IL-12p70, IL-6, IL-1β, IP10, RANTES) and analyzed using a Luminex™ MAGPIX™ Instrument System. Values that were outside of the standard curve range (<3.2 or […]) were either excluded from calculation of the mean values or, when indicated, converted to […] for calculation of the mean values.
Renca cancer cells (ATCC) were cultured in RPMI-1640 (ATCC) with 10% heat-inactivated fetal bovine serum, Pen-Strep (100 U/mL-100 μg/mL), MEM non-essential amino acids (1×), sodium pyruvate (1 mM), and L-glutamine (2 mM). Renca cancer cells were implanted (2*10^6 cells in 200 μL 25% Matrigel) subcutaneously into Balb/c female mice. In some experiments, Renca tumor cells were engineered to express the indicated murine or human target antigen.
(§2) When tumor volumes reached 100 mm^3, the mice were dosed with either compounds or ADCs by intraperitoneal or intravenous injection at the indicated dosing schedule and tumor volumes were monitored twice weekly. Compounds were formulated in 40% PEG400 in saline.
(§3) A syngeneic system was used to assess the ability of the STING agonist ADCs to induce immune responses in vivo and drive an anti-tumor immune response. The Renca system is a subcutaneous, mouse renal adenocarcinoma model. Female Balb/c mice were implanted with 2×10^6 Renca cells subcutaneously in the flank on day 0. When mean tumor size of 100 mm^3 (measured by using the formula Volume (mm^3)=0.5*Length*Width^2 where length is the longer dimension) was reached mice were randomized into treatment groups of ≥5 mice per group. Animals were then treated intraperitoneally (ADCs or compounds) or intravenously (compounds) with the indicated treatment every 7 days, for 3 doses total (or as indicated). Tumor length and width and the weight of the animals was measured throughout the study and tumor volume was calculated using the formula above. Animals were followed until the tumor volume reached ˜1000 mm^3; animals were then euthanized.

[15] = test system: Renca cancer cells; assay: In vivo anti-tumor activity, Renca tumor model
Procedure: In some experiments, Renca tumor cells were engineered to express the indicated murine or human target antigen.
as §2, §3

[16] = test system: CT26 cancer cells; assay: In vivo anti-tumor activity, CT26 tumor model; set-up: species or system mouse; conditions: CT26, q7dx3
Procedure: CT26 cancer cells (ATCC) were cultured in RPMI 1640 modified with 1 mM Sodium Pyruvate, 10 mM HEPES, 2.8 mL 45% Glucose (1.25 g) and supplemented with 10% fetal bovine serum and 1% Pen/Strep/Glutamine. CT26 cancer cells were implanted (0.5*10^6 cells in 200 uL serum-free RPMI 1640) subcutaneously into Balb/c mice.

## CCn1nc(C)cc1C(=O)Nc1nc2cc(C(N)=O)cc(OC)c2n1C/C=C/Cn1c(NC(=O)c2cc(C)nn2CC)nc2cc(C(N)=O)cc(OCCCN(C)C(=O)CCN3C(=O)CC(SC[C@H](N)C(=O)O)C3=O)c21 (stereo partly drawn) [compound 16]
[1]; small molecules, 24 h, >10,000 nM = minimal activity up to 10 μM, some values average of multiple experiments, read-out: EC50, Lucia reporter signal
  pEC50: 7.28
[2]
  pIC50: < 6.00
[3]
  pIC50: < 6.00
[4]
  pIC50: < 6.00
[5]
  pIC50: 8.40
[6]
  pIC50: 8.15
[7]
  pIC50: < 6.00
[8]
  pIC50: 7.54
[9]
  pIC50: < 6.00
[10]
  pIC50: < 6.00
[11]
  pIC50: 7.57
[12]
  pIC50: < 6.00

## CCn1nc(C)cc1C(=O)Nc1nc2cc(C(N)=O)cc(O)c2n1C/C=C/Cn1c(NC(=O)c2cc(C)nn2CC)nc2cc(C(N)=O)cc(OC)c21 [compound 1, (E)-1-(4-(5-carbamoyl-2-(1-ethyl-3-methyl-1H-pyrazole-5-carboxamido)-7-hydroxy-1H-benzo[d]imidazol-1-yl)but-2-en-1-yl)-2-(1-ethyl-3-methyl-1H-pyrazole-5-carboxamido)-7-methoxy-1H-benzo[d]imidazole-5-carboxamide]
[1]; free drug, 24 h (48 h elsewhere in the source)
  relative potency of free drug, Lucia reporter: significantly more potent than (2′, 3′)-Rp,Rpc-diAMPS disodium (Compound B)
[13]
  cytokine production: induced cytokine production
[14]; 3 h after treatment
  IFNγ in plasma: < 3.2 pg/mL
  IL1β in plasma: 0.7 pg/mL
  IL12p70 in plasma: 174 pg/mL
  IL-6 in plasma: 95.7 pg/mL
  IL-10 in plasma: 48.8 pg/mL
  IP10 in plasma: 703 pg/mL
  MCP-1 in plasma: 168 pg/mL
  MIP1α in plasma: 55.6 pg/mL
  MIP1β in plasma: 362 pg/mL
  RANTES in plasma: 10.6
  TNFa in plasma: 3.6
[14]; 6 h after treatment
  IFNγ in plasma: 0.2 pg/mL
  IL1β in plasma: 1.5 pg/mL
  IL12p70 in plasma: < 3.2 pg/mL
  IL-6 in plasma: 6.8 pg/mL
  IL-10 in plasma: 0.8 pg/mL
  IP10 in plasma: 3390 pg/mL
  MCP-1 in plasma: 796 pg/mL
  MIP1α in plasma: 38.9 pg/mL
  MIP1β in plasma: 169 pg/mL
  RANTES in plasma: 18.4
  TNFa in plasma: 1.9
[14]; 24 h after treatment
  IFNγ in plasma: < 3.2 pg/mL
  IL1β in plasma: 0.8 pg/mL
  IL12p70 in plasma: 140 pg/mL
  IL-6 in plasma: 13.5 pg/mL
  IL-10 in plasma: 34.6 pg/mL
  IP10 in plasma: 551 pg/mL
  MCP-1 in plasma: 333 pg/mL
  MIP1α in plasma: 69.9 pg/mL
  MIP1β in plasma: 70.7 pg/mL
  RANTES in plasma: 15.6
  TNFa in plasma: 2.0
[14]; plasma
  systemic pro-inflammatory cytokine (IL-6 and TNF) production: induced very little pro-inflammatory cytokine (IL-6 and TNF) production
[15]; Renca, q7dx3
  tumor growth / anti-tumor activity: some tumor growth delay was observed
[15]; after the 1st and 2nd dose of the treatment
  average weight loss: < −5%
[16]
  tumor growth: minimal tumor growth delay

From patent US20250255981A1, “IMMUNOMODULATORY ANTIBODY-DRUG CONJUGATES” (Seagen Inc., priority 2022, published 2025)
